Reference: paper PMC5447021, “TNF Lectin-Like Domain Restores Epithelial Sodium Channel Function in Frameshift Mutants Associated with Pseudohypoaldosteronism Type 1B” (Frontiers in Immunology, 2017)
“Also recorded” adds a separate entry of the source.

What was measured:
Type in all cases: cell-based, human
αF435fs = test: Membrane abundance of αF435fs
Procedure: Cell surface biotinylation was performed as previously described ([26]). In brief, A549 cells or transiently transfected HEK-293 cells were grown in 10 cm dishes in 37°C, 5% CO2 incubator in DMEM medium supplemented with 5% FBS. […] Medium was aspirated, and then cells were washed twice with 10 ml ice-cold phosphate-buffered saline (PBS), covered with 2.5 mg EZ-Link Sulfo-NHS-SS-Biotin (Thermo Scientific, Rockford, USA), dissolved in 10 ml ice-cold PBS, and incubated at 4°C with gentle agitation for 30 min. Fifty milliliters of quenching solution were added to cells; then cells were scraped in solution and transferred to fresh 50 ml tube. Cell suspension was centrifuged at 500 × g for 3 min. Supernatant was discarded, and 5 ml of Tris-buffered saline (TBS) was added to the cell pellet. The cell pellet was resuspended and centrifuged at 500 × g for 3 min. Supernatant was discarded and cell pellet was resuspended in lysis buffer containing protease inhibitor cocktail (10 µM pepstatin A, 10 µM phenylmethylsulfonyl fluoride, and 10 µM leupeptin) and transferred to fresh 1.5 ml centrifuge tube. Cell pellet was then homogenized on ice by ultrasonication using 1 s bursts and incubated on ice for at least 30 min. Intact cells and nuclei were pelleted by centrifugation at 10,000 × g for 2 min under cooling conditions. Pellet was then discarded and supernatant was transferred to fresh tube, incubated overnight with 0.5 ml NeutrAvidin Agarose under gentle rotation at 4°C and centrifuged at 500 × g for 5 min under cooling conditions. Supernatant was then discarded and the pellet washed twice with 200 µl lysis buffer. The biotinylated proteins were eluted with 100 µl sodium dodecyl sulfate (SDS) sample buffer (62.5 mM Tris, pH 6.8, 1% SDS, 10% glycerine, 50 mM dithiothreitol) containing 10 µM E64 at 65°C for 10 min. Sample was then centrifuged at 500 × g for 2 min. Pellet was discarded and supernatant subjected to protein electrophoresis and immunoblotting. […] Exposed films were scanned and quantified using ImageJ (NIH, MD, USA). […]

[1] = tested on: αY447fs (co-expressed with βγ-ENaC); test: Whole-cell patch clamp, αY447fs + WT βγ; conditions: read-out: EC50, solnatide, HEK-293, whole-cell, -100 mV, n = 7
Procedure: (§1) Point mutations of α-, β-, γ- and δ-hENaC and PHA1B frameshift mutations of α-hENaC were prepared with the QuikChange Lightning Site-Directed Mutagenesis Kit (Agilent Technologies, CA, USA). Mutagenic primers were designed individually with the Primer Design Program provided on the producer’s website or for the frameshift mutations the same base changes as reported in patients (see Table 2) were performed. Primers were ordered from Sigma-Aldrich, Vienna, Austria.
(§2) HEK-293 cells were transfected 1 day after cell seeding using X-tremeGENE HP DNA transfection reagent (Roche Diagnostics, Mannheim, Germany) according to the manufacturer’s protocol. A set of WT or mutant αβγ- or δβγ-hENaC, or α-, β-, γ-, or δ-hENaC alone was used, and the ratio of DNA to transfection reagent was 1:3. The expression was highest 48–72 h after transfection.
(§3) Electrophysiological experiments were performed as described in detail by Shabbir et al. ([16]). […] Currents were recorded with the patch clamp method in the whole-cell mode. The chamber contained 1 ml of the bath solution of the following composition (in mM): 145 NaCl, 2.7 KCl, 1.8 CaCl2, 2 MgCl2, 5.5 glucose, and 10 HEPES, adjusted to pH 7.4 with 1 M NaOH solution. Micropipettes were pulled from thin-walled borosilicate glass capillaries (Harvard Apparatus, Holliston, MA, USA) with a DMZ Zeitz Puller to obtain electrode resistances ranging from 2 to 5 MΩ. […]

[2] = tested on: αE272fs (co-expressed with βγ-ENaC); test: Whole-cell patch clamp, αE272fs + WT βγ; conditions: read-out: EC50, solnatide, HEK-293, whole-cell, -100 mV, n = 5, p < 0.001 vs WT
Procedure: as §1, §2, §3

[3] = tested on: αS452fs (co-expressed with βγ-ENaC); test: Whole-cell patch clamp, αS452fs + WT βγ; conditions: read-out: EC50, solnatide, HEK-293, whole-cell, -100 mV, n = 5, p < 0.01 vs WT
Procedure: as §1, §2, §3

βγ-ENaC = test: Whole-cell patch clamp, WT βγ-ENaC; conditions: HEK-293, 200 nM solnatide, n = 3
Procedure: as §2
as §3, with “MΩ. The pipette solution contained (in millimolars): 135 potassium methane sulfonate, 10 KCl, 6 NaCl, 1 Mg2ATP, 2 Na3ATP, 10 HEPES, and 0.5 EGTA, adjusted to pH 7.2 with 1 M KOH solution. Chemicals for pipette and bathing solutions were supplied by Sigma-Aldrich (Vienna, Austria). Electrophysiological measurements were carried out with an Axopatch 200B patch clamp amplifier (Axon Instruments, CA, USA).” for “MΩ.”

For `C[C@@H]1NC(=O)CNC(=O)[C@H](CCC(=O)O)NC(=O)[C@@H]2CCCN2C(=O)[C@H]([C@@H](C)O)NC(=O)[C@H](CCC(=O)O)NC(=O)[C@H](CCCNC(=N)N)NC(=O)[C@H](CCC(N)=O)NC(=O)CNC(=O)[C@@H](N)CSSC[C@@H](C(=O)O)NC(=O)[C@H](Cc2ccc(O)cc2)NC(=O)[C@H](Cc2c[nH]c3ccccc23)NC(=O)[C@@H]2CCCN2C(=O)[C@H](CCCCN)NC(=O)[C@H](C)NC(=O)[C@H](CCC(=O)O)NC1=O` [solnatide, L-cysteine, L-cysteinylglycyl-L-glutaminyl-L-arginyl-L-α-glutamyl-L-threonyl-L-prolyl-L-α-glutamylglycyl-L-alanyl-L-α-glutamyl-L-alanyl-L-lysyl-L-prolyl-L-tryptophyl-L-tyrosyl-, cyclic (1→17)-disulfide], the “Membrane abundance, solnatide 5 min” value (αF435fs; 200 nM, 5 min, relative to WT control (=1), own control 2.37 ± 0.15, p < 0.001 vs control) was 3.71 ± 0.20, the “Membrane abundance, solnatide 10 min” value (αF435fs; 200 nM, 10 min, relative to WT control (=1), own control 2.37 ± 0.15, p < 0.01 vs control) was 2.82 ± 0.17 and the “Membrane abundance after solnatide” value (αF435fs; HEK-293) was “the membrane abundance increasing even further following exposure to solnatide”. It also gave an EC50 [1] of 57.2 ± 4.8 nM, an EC50 [2] of 75.6 ± 5.4 nM and an EC50 [3] of 68.5 ± 4.1 nM. The “Effect of solnatide on current (words)” value (βγ-ENaC) was “small current increase in WT βγ-ENaC; also recorded: can activate βγ-ENaC marginally”.
